# In US9849131B2 (AUTIFONY THERAPEUTICS LIMITED, priority 2009, dated 2017):
# How the values were obtained:
# [1] = test system: common marmosets; assay: Behaviour of the common marmoset on threatening human approach (Example 94); assay type: in vivo; settings: for Number of Jumps / Number of postures: 2 minute test, mean ± sem
# Text: Central anxiolytic effects of a test compound can be assessed from the ability of the compound to reduce the characteristic defensive postures of marmosets in response to a threatening approach by a human. The test can also be used to assess the sedative or hypnotic effects of a test compound from its ability to reduce the number of jumps made by the animals. The study was based on the method described in Costall, B. et al (1988) Br. J. Pharmac. 95 p 475P. Laboratory-bred (GSK SpA, Italy) male and female common marmosets over 2 years of age, weighing 300-500 g were used in the study. The animals were caged in couples in a housing room maintained at 25±1° C., 60% humidity, and a 12 hour light/dark cycle (lights on at 0600, with 30 minutes simulated dawn and twilight). Both animals in each pair were involved in the test, which was carried out with the animals in their home cage.
# The postures recorded in the test were those described by Costall et al supra; • Genital presenting (“Tail Posture”): the animal's back is turned to the observer with elevation of the tail to expose the genital region; • Scent-marking: the animal scent-marks the cage surfaces using circum-anal and circum-genital scent glands; • Slit-stare: the animal stares at the observer with flattened ear tufts and eyes reduced to “slits” • Arch-piloerection: the animal moves around the cage with arched back and full-body piloerection, failing to make eye contact with the observer
# The number of jumps from the back of the cage to the cage front provided an index of locomotor activity, which could be used to assess the potential for a hypnotic effect, sedation, or locomotor stimulation produced by the test compound.
# [2] = Blood concentrations in satellite animals of the electroshock seizure study; assay type: in vivo, rat; parameters: unbound concentration in blood: unit not given here; settings: for unbound concentration in blood: rat
# Procedure: Testing involved determining the threshold for tonic hindlimb extensor seizures using a Hugo Sachs Electronik stimulator which delivers a constant current of 0.3 second duration, 50 Hz, sinewave form, fully adjustable between 1 and 300 mA. Stimuli were delivered via corneal electrodes (Stean T O, Atkins A R, Heidbreder C A, Quinn L P, Trail B K, Upton N. (2005) Br J Pharmacol. 144(5):628-35). Seizure threshold was determined using the ‘up and down’ method of Kimball et al. (1957)(Kimball A W, Burnett W T Jr, Doherty D G. (1957) Radiat Res. 7(1):1-12). The first animal tested in each group was stimulated with a current that might be expected to be close to the threshold for induction of a seizure. If a tonic seizure was not induced, then the next animal in the group received a stimulus 5 mA higher. If a tonic seizure was induced, then the next animal received a stimulus 5 mA lower. This is repeated for all animals within the control (vehicle) group. In the case of groups treated with a test compound steps of 5 to 10 mA were used. At the end of the study, blood samples were taken for analysis of the drug concentrations in this compartment (n=4/group).
# Blood concentrations of Compound 19 measured in satellite animals 2 hours after dosing were 5.3 and 9.11 μg/mL following the doses of 30 and 60 mg/kg p.o., respectively.
# [3] = 0.3 mg/kg p.o. 2 hours before test
# [4] = 1 mg/kg p.o. 2 hours before test
# [5] = 3 mg/kg p.o. 2 hours before test
smiles,measurement,setting,value
"CC[C@H]1NC(=O)N(c2ccc(Oc3ccc(C)c(OC)c3)nc2)C1=O [Example 19, (5R)-5-ethyl-3-(6-{[4-methyl-3-(methyloxy)phenyl]oxy}-3-pyridinyl)-2,4-imidazolidinedione]",Number of Jumps,[1]; [3],21.3 ± 2.7
same,Number of postures,[1]; [3],12.2 ± 1.03
same,effect on the number of jumps,[1]; 1 mg/kg p.o.,significantly reduced
same,Number of Jumps,[1]; [4],15.3 ± 2.5
same,Number of postures,[1]; [4],10.0 ± 1.2
same,effect on the number of jumps,[1]; 3 mg/kg p.o.,significantly reduced
same,Number of Jumps,[1]; [5],11.5 ± 1.9
same,Number of postures,[1]; [5],9.7 ± 1.1
same,effects on postures,"[1]; any dose (0.3, 1, 3 mg/kg p.o.)",without any effects
same,concentration at 2 h,"[2]; CD, whole blood, oral, rat satellite animals, 2 hours after 60 mg/kg p.o.",9110 ng/mL
same,unbound concentration in blood,[2]; 2 hours after 30 mg/kg p.o.,1.3
same,unbound concentration in blood,[2]; 2 hours after 60 mg/kg p.o.,2.21
